Data taken from patent US20050202511A1, “AMP-activated protein kinase (AMPK) inhibitor screening assay” (priority 2002, published 2005).

How the values were obtained:
AMPK = assay: Activation of AMPK (data not shown); assay type: biochemical; details: read-out: concentration giving half-maximal activation
IMPDH2 CBS1-2 (R224P) = target: T1, IMPDH2 CBS1-2 (R224P) (Homo sapiens, UniProt P12268, R224P); assay: Filter binding assay, isolated CBS domain pair; details: single-site model
T1 construct: DNAs encoding residues 112-232 or the full-length protein (1-514) were amplified; His tag (pHAT20 vector); made in house; host or cells: E. coli
Source text: To examine whether binding of adenine nucleotides is a general function for CBS domains, or is specific to the γ subunits of AMPK, IMP dehydrogenase (IMPDH) was also studied. Retinitis pigmentosa can be caused by an R224P mutation in the second CBS domain of the IMPDH1 isoform (27). However, the IMPDH2 isoform is 84% identical in amino acid sequence with IMPDH1, and the arginine mutated in retinitis pigmentosa is conserved. Because the IMPDH2 isoform is ubiquitously expressed and a suitable cDNA to use as a template for PCR was more readily available, DNA encoding the single pair of CBS domains from human IMPDH2 was cloned, an R224P mutation was created and expressed both the wild type and the mutant as His-tagged proteins in E. coli.
For IMPDH2, DNAs encoding residues 112-232 or the full-length protein (1-514) were amplified using human liver cDNA (Clontech) as template, and cloned into pHAT20 (Clontech) using 5′-AgeI and 3′-KpnI sites added to the primers. For the other constructs, DNAs encoding residues 582-840 of CLC2, or 416-551 of cystathionine â-synthase, were amplified using human liver cDNA as template, and cloned into pGEX-KG as above using 5′-BamHI and 3′-XhoI sites added to the primers. All mutations were created using the Stratagene QuikChange Site-directed Mutagenesis system.
The IMPDH2 constructs were His-tagged and were purified on chelating-Sepharose (Pharmacia) charged with 50 mM CoCl2 according to manufacturer's instructions.
Various concentrations of [^14C]-AMP, [γ^32P] […] Reactions were stopped by spotting 10 ìl onto a Millipore MF Filter Membrane disc and rapidly washing under high vacuum with 1 ml of ice-cold TBS. Radioactivity was determined on the filters by scintillation counting. Non-specific binding (which was trivial) was determined by performing the assay with GST as a control, and was subtracted. […] Data were fitted to the binding models given in the text, using GraphPad Prism 3. […]

T1 sequence (P12268 112-232 R224P): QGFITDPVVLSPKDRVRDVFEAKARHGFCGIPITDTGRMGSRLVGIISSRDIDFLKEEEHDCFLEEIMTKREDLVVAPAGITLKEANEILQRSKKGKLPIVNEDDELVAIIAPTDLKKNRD

EC50 (AMPK) | Kd (IMPDH2 CBS1-2 (R224P)) | SMILES
4.7 µM | – | Nc1ncnc2c1ncn2[C@@H]1O[C@H](COP(=O)(O)O)[C@@H](O)[C@H]1O [AMP, adenosine monophosphate]
– | 450 ± 36 µM | Nc1ncnc2c1ncn2[C@@H]1O[C@H](COP(=O)(O)OP(=O)(O)OP(=O)(O)O)[C@@H](O)[C@H]1O [ATP]
